Data: patent US10729680B2, “5-substituted 2-(morpholin-4-yl)-1,7-naphthyridines” (BAYER PHARMA AKTIENGESELLSCHAFT, priority 2016, dated 2020)

These compounds were tested on HeLa cells (assay: Proliferation assay (HeLa, crystal violet)). Settings: Homo sapiens, 96 h, 4 days incubation, crystal violet staining, read-out: Inhibition of HeLa cell proliferation.
Assay type: cell-based
Protocol: Human tumour cells were originally obtained from the American Type Culture Collection (ATCC), the Deutsche Sammlung von Mikroorganismen und Zellkulturen (DSMZ, German Collection of Microorganisms and Cell Cultures) or Epo GmbH, Berlin.
Adherently growing cells (HeLa, HeLa-MaTu-ADR, HT-144, Lovo, HT-29, NCI-H460, DU145, Caco2, B16F10) were plated out in a density of 1500-4000 cells/measurement point, depending on the rate of growth of the cell line, in a 96-well multititre plate in 200 μl of growth medium (DMEM/HAMS F12, 2 mM L-glutamine, 10% foetal calf serum). After 24 hours, the cells of one plate (zero plate) were dyed with crystal violet (see below), whereas the medium of the other plates was replaced with fresh culture medium (200 μl) to which the test substances were added in various concentrations (0 μM, and also in the range of 0.001-10 μM; the final concentration of the solvent dimethyl sulphoxide was 0.1 or 0.5%). The cells were incubated for 4 days in the presence of the test substances. Cell proliferation was determined by staining the cells with crystal violet: the cells were fixed at room temperature for 15 min by adding 20 μl/measurement point of an 11% strength glutaraldehyde solution. After washing the fixed cells three times with water, the plates were dried at room temperature. The cells were stained by adding 100 μl/measurement point of a 0.1% strength crystal violet solution (pH adjusted to pH 3 by adding acetic acid). After washing the cells three times with water, the plates were dried at room temperature. The dye was dissolved by adding 100 μl/measurement point of a 10% strength acetic acid solution. Absorbance was determined photometrically at a wavelength of 595 nm. The percentage change in cell growth was calculated by normalizing the measured values to the absorbance values of the zero plate (=0%) and the absorbance of the untreated (0 μM) cells (=100%). The IC50 values were determined by means of a four parameter fit.
Inhibition of proliferation of HeLa cells by compounds according to the present invention, determined as described above. All IC50 (inhibitory concentration at 50% of maximal effect) values are indicated in M, “n.t.” means that the compounds have not been tested in the respective assay.

First: Cc1cnc(-c2ccn[nH]2)c2nc(N3CCOC[C@H]3C)cc(OC(C)C)c12 [Example 1, 5-methyl-2-[(3R)-3-methylmorpholin-4-yl]-4-(propan-2-yloxy)-8-(1H-pyrazol-5-yl)-1,7-naphthyridine]
Second: Cc1cnc(-c2ccn[nH]2)c2nc(N3CCOC[C@H]3C)cc(-c3ccnn3C)c12 [Example 2, 5-methyl-2-[(3R)-3-methylmorpholin-4-yl]-4-(1-methyl-1H-pyrazol-5-yl)-8-(1H-pyrazol-5-yl)-1,7-naphthyridine]
The IC50 of the first is 7.9-fold higher: 498 nM for the first, 63.4 nM for the second. The second is the more potent here.

What follows are compounds tested against full-length human ATR protein (ATR/ATRIP) (Homo sapiens (Human), UniProt Q13535) (assay: Binding Assay ATR (TR-FRET, tracer A displacement)). Settings: displacement of fluorescent tracer A from GST-ATR/ATRIP.
Sequence of full-length human ATR protein (ATR/ATRIP) (Q13535 other isoform, or with tags, fused parts or gaps): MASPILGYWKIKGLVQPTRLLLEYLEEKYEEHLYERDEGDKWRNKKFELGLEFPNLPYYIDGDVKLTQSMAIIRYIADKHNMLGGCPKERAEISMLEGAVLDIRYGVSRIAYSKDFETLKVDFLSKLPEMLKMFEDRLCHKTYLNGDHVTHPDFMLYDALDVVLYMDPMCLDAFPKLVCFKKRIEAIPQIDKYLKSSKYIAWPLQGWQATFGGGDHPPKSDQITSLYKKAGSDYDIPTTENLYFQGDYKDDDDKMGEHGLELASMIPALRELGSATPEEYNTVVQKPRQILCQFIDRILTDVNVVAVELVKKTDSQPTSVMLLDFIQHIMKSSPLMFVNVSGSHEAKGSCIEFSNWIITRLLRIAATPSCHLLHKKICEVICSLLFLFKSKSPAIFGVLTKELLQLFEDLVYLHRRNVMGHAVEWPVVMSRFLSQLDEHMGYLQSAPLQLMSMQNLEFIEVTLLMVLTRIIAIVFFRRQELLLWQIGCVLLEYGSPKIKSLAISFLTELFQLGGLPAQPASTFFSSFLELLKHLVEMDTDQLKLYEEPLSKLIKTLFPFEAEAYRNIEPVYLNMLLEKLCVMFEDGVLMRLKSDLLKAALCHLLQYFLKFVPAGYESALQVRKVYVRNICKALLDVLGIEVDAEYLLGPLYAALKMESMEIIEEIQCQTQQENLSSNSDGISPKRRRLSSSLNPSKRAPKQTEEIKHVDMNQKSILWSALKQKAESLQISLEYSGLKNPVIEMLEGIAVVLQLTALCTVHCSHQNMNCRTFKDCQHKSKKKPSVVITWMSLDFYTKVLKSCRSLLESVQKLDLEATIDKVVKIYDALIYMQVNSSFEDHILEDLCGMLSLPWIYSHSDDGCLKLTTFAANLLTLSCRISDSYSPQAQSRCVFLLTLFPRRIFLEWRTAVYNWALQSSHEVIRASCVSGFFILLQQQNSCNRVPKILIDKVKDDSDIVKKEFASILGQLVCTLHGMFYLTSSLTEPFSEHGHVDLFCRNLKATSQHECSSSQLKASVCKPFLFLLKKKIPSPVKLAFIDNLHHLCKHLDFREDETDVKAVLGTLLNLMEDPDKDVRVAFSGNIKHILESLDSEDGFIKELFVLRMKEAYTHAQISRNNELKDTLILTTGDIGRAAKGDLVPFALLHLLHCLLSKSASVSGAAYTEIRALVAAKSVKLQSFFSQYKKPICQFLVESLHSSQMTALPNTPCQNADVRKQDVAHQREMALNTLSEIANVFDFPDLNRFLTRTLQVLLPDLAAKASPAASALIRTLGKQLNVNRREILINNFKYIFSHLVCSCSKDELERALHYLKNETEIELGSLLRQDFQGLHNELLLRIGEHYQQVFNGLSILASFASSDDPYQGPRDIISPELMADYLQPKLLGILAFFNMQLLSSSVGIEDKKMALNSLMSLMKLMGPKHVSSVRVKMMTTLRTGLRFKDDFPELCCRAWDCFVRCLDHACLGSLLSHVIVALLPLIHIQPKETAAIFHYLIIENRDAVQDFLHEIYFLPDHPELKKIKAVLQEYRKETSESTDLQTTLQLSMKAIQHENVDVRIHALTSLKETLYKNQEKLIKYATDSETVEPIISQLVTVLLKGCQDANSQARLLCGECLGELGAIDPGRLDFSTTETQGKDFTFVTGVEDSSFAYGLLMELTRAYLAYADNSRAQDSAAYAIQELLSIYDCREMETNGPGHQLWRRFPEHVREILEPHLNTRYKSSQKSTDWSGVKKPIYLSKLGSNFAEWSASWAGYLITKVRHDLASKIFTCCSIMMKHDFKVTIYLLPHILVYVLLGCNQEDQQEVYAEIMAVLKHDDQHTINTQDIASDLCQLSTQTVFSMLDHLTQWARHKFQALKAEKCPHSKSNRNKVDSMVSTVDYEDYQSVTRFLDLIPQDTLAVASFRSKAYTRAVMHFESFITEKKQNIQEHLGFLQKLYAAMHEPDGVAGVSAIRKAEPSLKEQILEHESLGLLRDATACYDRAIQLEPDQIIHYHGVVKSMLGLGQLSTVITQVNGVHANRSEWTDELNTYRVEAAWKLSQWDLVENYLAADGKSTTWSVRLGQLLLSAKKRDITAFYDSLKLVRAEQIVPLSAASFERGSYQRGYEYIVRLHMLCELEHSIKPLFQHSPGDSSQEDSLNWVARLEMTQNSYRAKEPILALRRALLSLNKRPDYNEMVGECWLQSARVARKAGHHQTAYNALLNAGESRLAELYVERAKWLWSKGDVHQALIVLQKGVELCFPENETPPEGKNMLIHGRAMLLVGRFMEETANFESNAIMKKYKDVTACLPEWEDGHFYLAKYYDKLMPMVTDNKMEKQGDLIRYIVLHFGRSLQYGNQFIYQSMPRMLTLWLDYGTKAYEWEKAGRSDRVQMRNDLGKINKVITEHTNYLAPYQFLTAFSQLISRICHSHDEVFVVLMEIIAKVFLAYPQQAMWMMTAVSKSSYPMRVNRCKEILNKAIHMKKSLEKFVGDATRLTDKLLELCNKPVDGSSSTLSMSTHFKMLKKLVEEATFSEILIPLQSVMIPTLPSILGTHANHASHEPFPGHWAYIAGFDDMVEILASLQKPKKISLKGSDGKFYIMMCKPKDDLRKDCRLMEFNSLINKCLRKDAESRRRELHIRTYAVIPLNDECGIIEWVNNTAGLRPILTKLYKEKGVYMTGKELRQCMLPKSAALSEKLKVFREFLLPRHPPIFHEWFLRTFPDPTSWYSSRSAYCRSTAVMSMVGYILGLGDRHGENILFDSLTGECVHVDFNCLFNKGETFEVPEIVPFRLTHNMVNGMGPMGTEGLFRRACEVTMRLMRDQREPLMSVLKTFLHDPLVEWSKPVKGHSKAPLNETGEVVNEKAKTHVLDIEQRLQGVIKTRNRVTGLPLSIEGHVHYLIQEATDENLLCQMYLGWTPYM
Sequence of full-length human ATR protein (ATR/ATRIP) (Q8WXE1 other isoform, or with tags, fused parts or gaps partner): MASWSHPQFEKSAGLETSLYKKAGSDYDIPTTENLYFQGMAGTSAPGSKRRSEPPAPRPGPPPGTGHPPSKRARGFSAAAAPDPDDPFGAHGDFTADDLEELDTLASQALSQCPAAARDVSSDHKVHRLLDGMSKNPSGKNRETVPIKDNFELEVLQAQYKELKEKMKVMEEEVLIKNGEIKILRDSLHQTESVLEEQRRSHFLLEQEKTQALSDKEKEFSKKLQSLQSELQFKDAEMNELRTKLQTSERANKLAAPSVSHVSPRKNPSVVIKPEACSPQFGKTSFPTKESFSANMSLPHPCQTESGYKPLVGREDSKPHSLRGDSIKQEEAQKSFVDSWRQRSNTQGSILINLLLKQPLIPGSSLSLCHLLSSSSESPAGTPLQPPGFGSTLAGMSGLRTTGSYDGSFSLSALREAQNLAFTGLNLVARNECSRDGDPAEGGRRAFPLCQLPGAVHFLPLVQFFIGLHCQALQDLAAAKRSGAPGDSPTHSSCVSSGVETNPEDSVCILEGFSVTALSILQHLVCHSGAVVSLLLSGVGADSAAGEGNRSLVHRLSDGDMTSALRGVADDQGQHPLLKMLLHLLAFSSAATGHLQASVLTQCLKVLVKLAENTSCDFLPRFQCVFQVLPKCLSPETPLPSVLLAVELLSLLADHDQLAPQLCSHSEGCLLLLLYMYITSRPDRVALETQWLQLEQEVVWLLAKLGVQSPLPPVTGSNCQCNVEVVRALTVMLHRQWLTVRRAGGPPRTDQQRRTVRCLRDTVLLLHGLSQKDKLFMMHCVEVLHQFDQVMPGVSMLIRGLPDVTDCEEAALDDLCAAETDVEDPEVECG
From the text: To determine of binding activity of the test compounds, full-length human ATR protein was expressed and purified together with ATRIP as described above. Furthermore, a fluorescently labelled compound (tracer A as described above) was used as a tracer molecule. Detection of the binding event of the tracer was achieved by time-resolved fluorescence energy transfer (TR-FRET). We used an anti-GST-Terbium antibody (CisBio) that binds to the GST-tag at the N-terminus of ATR-kinase. Excitation of Terbium with 337 nm light results in emission of fluorescent light with 545 nm. In case a tetrameric complex has formed (antiGST-Tb+GST-ATR+Strp2-ATRIP+tracer), part of the energy will be transferred from the Terbium to the fluorophore that itself emits light of 570 nm. Displacement of the fluorescent tracer by a test compound leads to a reduction of the TR-FRET-signal.
For the assay 50 nl of a 100-fold concentrated solution of the test compound in DMSO was pipetted into a black low volume 384 well microtiter plate (MTP, Greiner Bio-One, Frickenhausen, Germany). To prepare the ATR-working solution, ATR/ATRIP stock solution was diluted in assay buffer [50 mM HEPES (pH 7.0), 10 mM MgCl2, 1 mM DTT, 0.01% (w/v) Igepal, 0.01% (w/v) BSA] to 4.2 nM protein concentration (concentration may vary from lot to lot of protein preparation). AntiGST-Tb antibody was diluted to 4.2 nM. The ATR-working solution was incubated for 30 min at 22° C. prior to dispensing to pre-form the complex of antiGST-Tb+GST-ATR+ATRIP. Then, 3 μl of the ATR-working solution were added to the test compound and the mixture was incubated for 10 min at 22° C. to allow pre-binding of the test compounds to ATR/ATRIP. Then, 2 μl of a 100 nM solution of tracer A in assay buffer were added to the ATR-working solution. The resulting mixture was incubated for 30 min at 22° C. The measurement of the TR-FRET signal was performed in a standard HTRF-compatible MTP reader instrument (e.g. BMG Pherastar) by recording the fluorescence emissions at 545 nm and 570 nm after excitation at 337-350 nm. The ratio between emission at 570 nm divided by emission at 545 nm was calculated to give the well ratio. The experimental data (well ratios) were normalised by the following way: positive control contained ATR-working solution plus tracer A solution (=0% inhibition), the negative control contained all components except GST-ATR/ATRIP (=100% inhibition). Usually the compounds were tested on the same MTP in 11 different concentrations in the range of 20 μM to 0.1 nM (20 μM, 5.9 μM, 1.7 μM, 0.51 μM, 0.15 μM, 44 nM, 13 nM, 3.8 nM, 1.1 nM, 0.33 nM and 0.1 nM). The dilution series were prepared separately before the assay on the level of the 100 fold concentrated solutions in DMSO by serial 1:3.4 dilutions in duplicate values for each concentration. IC50 values were calculated by a 4 parameter fit using standard software (GraphPad prism or equivalent).

Going from `Cc1cnc(-c2ccn[nH]2)c2nc(N3CCOC[C@H]3C)cc(OC(C)C)c12` [Example 1, 5-methyl-2-[(3R)-3-methylmorpholin-4-yl]-4-(propan-2-yloxy)-8-(1H-pyrazol-5-yl)-1,7-naphthyridine] to `Cc1cnc(-c2ccn[nH]2)c2nc(N3CCOC[C@H]3C)cc(-c3cccc(OC(C)C)c3)c12` [Example 60, 5-methyl-2-[(3R)-3-methylmorpholin-4-yl]-4-[3-(propan-2-yloxy)phenyl]-8-(1H-pyrazol-5-yl)-1,7-naphthyridine], the IC50 rises from 25.9 nM to 132 nM (5.1-fold). The first is the more potent here.

`Cc1cnc(-c2ccn[nH]2)c2nc(N3CCOC[C@H]3C)cc(-c3ccnn3C)c12` [Example 2, 5-methyl-2-[(3R)-3-methylmorpholin-4-yl]-4-(1-methyl-1H-pyrazol-5-yl)-8-(1H-pyrazol-5-yl)-1,7-naphthyridine] and `Cc1cnccc1-c1cc(N2CCOC[C@H]2C)nc2c(-c3ccn[nH]3)ncc(C)c12` [Example 46, 5-methyl-2-[(3R)-3-methylmorpholin-4-yl]-4-(3-methylpyridin-4-yl)-8-(1H-pyrazol-5-yl)-1,7-naphthyridine] are within 1.5-fold of each other in IC50: 6.02 nM for the first, 7.78 nM for the second.

First: Cc1cnc(-c2ccn[nH]2)c2nc(N3CCOC[C@H]3C)cc(-c3ccc4cc[nH]c4c3)c12 [Example 45, 4-(1H-indol-6-yl)-5-methyl-2-[(3R)-3-methylmorpholin-4-yl]-8-(1H-pyrazol-5-yl)-1,7-naphthyridine]
Second: Cc1cnc(-c2ccn[nH]2)c2nc(N3CCOC[C@H]3C)cc(-c3ccc4c(ccn4C)c3)c12 [Example 57, 5-methyl-4-(1-methyl-1H-indol-5-yl)-2-[(3R)-3-methylmorpholin-4-yl]-8-(1H-pyrazol-5-yl)-1,7-naphthyridine]
The IC50 of the first is 1.9-fold higher: 94.7 nM for the first, 50 nM for the second. The second is the more potent here.

Compared with `Cc1cnc(-c2ccn[nH]2)c2nc(N3CCOC[C@H]3C)cc(-c3ccc(CO)s3)c12` [Example 47, (5-{5-methyl-2-[(3R)-3-methylmorpholin-4-yl]-8-(1H-pyrazol-5-yl)-1,7-naphthyridin-4-yl}thiophen-2-yl)methanol], `Cc1cnc(-c2ccn[nH]2)c2nc(N3CCOC[C@H]3C)cc(-c3ccc(F)nc3)c12` [Example 49, 4-(6-fluoropyridin-3-yl)-5-methyl-2-[(3R)-3-methylmorpholin-4-yl]-8-(1H-pyrazol-5-yl)-1,7-naphthyridine] is 7-fold higher in IC50: 4.09 nM for the first, 28.6 nM for the second. The first is the more potent here.

`Cc1cnc(-c2ccn[nH]2)c2nc(N3CCOC[C@H]3C)cc(-c3ccc(C#N)c(F)c3)c12` [Example 48, 2-fluoro-4-{5-methyl-2-[(3R)-3-methylmorpholin-4-yl]-8-(1H-pyrazol-5-yl)-1,7-naphthyridin-4-yl}benzonitrile] and `Cc1cnc(-c2ccn[nH]2)c2nc(N3CCOC[C@H]3C)cc(-c3ccc(C(N)=O)cc3)c12` [Example 52, 4-{5-methyl-2-[(3R)-3-methylmorpholin-4-yl]-8-(1H-pyrazol-5-yl)-1,7-naphthyridin-4-yl}benzamide] are within 1.5-fold of each other in IC50: 23.2 nM for the first, 30.2 nM for the second.

First: COc1ncccc1-c1cc(N2CCOC[C@H]2C)nc2c(-c3ccn[nH]3)ncc(C)c12 [Example 50, 4-(2-methoxypyridin-3-yl)-5-methyl-2-[(3R)-3-methylmorpholin-4-yl]-8-(1H-pyrazol-5-yl)-1,7-naphthyridine]
Second: Cc1ccncc1-c1cc(N2CCOC[C@H]2C)nc2c(-c3ccn[nH]3)ncc(C)c12 [Example 61, 5-methyl-2-[(3R)-3-methylmorpholin-4-yl]-4-(4-methylpyridin-3-yl)-8-(1H-pyrazol-5-yl)-1,7-naphthyridine]
The IC50 of the first is 8.4-fold higher: 72.2 nM for the first, 8.6 nM for the second.

Going from `Cc1cnc(-c2ccn[nH]2)c2nc(N3CCOC[C@H]3C)cc(-c3ccc(C(=O)N4CCCC4)cc3)c12` [Example 53, (4-{5-methyl-2-[(3R)-3-methylmorpholin-4-yl]-8-(1H-pyrazol-5-yl)-1,7-naphthyridin-4-yl}phenyl)(pyrrolidin-1-yl)methanone] to `CNC(=O)c1ccc(-c2cc(N3CCOC[C@H]3C)nc3c(-c4ccn[nH]4)ncc(C)c23)cc1` [Example 66, N-methyl-4-{5-methyl-2-[(3R)-3-methylmorpholin-4-yl]-8-(1H-pyrazol-5-yl)-1,7-naphthyridin-4-yl}benzamide], the IC50 falls from 27.3 nM to 12.9 nM (2.1-fold).

Going from `Cc1cnc(-c2ccn[nH]2)c2nc(N3CCOC[C@H]3C)cc(-c3ccc(C(=O)NCc4ccccc4)cc3)c12` [Example 54, N-benzyl-4-{5-methyl-2-[(3R)-3-methylmorpholin-4-yl]-8-(1H-pyrazol-5-yl)-1,7-naphthyridin-4-yl}benzamide] to `Cc1cnc(-c2ccn[nH]2)c2nc(N3CCOC[C@H]3C)cc(-c3ccc(C(=O)NC4CC4)cc3)c12` [Example 63, N-cyclopropyl-4-{5-methyl-2-[(3R)-3-methylmorpholin-4-yl]-8-(1H-pyrazol-5-yl)-1,7-naphthyridin-4-yl}benzamide], the IC50 falls from 34.6 nM to 7.87 nM (4.4-fold). The second is the more potent here.

Compared with `Cc1cnc(-c2ccn[nH]2)c2nc(N3CCOC[C@H]3C)cc(-c3cccc(C(=O)N(C)C)c3)c12` [Example 55, N,N-dimethyl-3-{5-methyl-2-[(3R)-3-methylmorpholin-4-yl]-8-(1H-pyrazol-5-yl)-1,7-naphthyridin-4-yl}benzamide], `COCc1cccc(-c2cc(N3CCOC[C@H]3C)nc3c(-c4ccn[nH]4)ncc(C)c23)c1` [Example 56, 4-[3-(methoxymethyl)phenyl]-5-methyl-2-[(3R)-3-methylmorpholin-4-yl]-8-(1H-pyrazol-5-yl)-1,7-naphthyridine] is 1.5-fold higher in IC50: 40.6 nM for the first, 62.4 nM for the second.

`Cc1cnc(-c2ccn[nH]2)c2nc(N3CCOC[C@H]3C)cc(-c3cncc4ccccc34)c12` [Example 58, 4-(isoquinolin-4-yl)-5-methyl-2-[(3R)-3-methylmorpholin-4-yl]-8-(1H-pyrazol-5-yl)-1,7-naphthyridine] and `COc1cncc(-c2cc(N3CCOC[C@H]3C)nc3c(-c4ccn[nH]4)ncc(C)c23)c1` [Example 59, 4-(5-methoxypyridin-3-yl)-5-methyl-2-[(3R)-3-methylmorpholin-4-yl]-8-(1H-pyrazol-5-yl)-1,7-naphthyridine] are within 1.5-fold of each other in IC50: 40 nM for the first, 42.6 nM for the second.

`Cc1cnc(-c2ccn[nH]2)c2nc(N3CCOC[C@H]3C)cc(-c3ccc(C(=O)NC(C)(C)C)cc3)c12` [Example 62, N-tert-butyl-4-{5-methyl-2-[(3R)-3-methylmorpholin-4-yl]-8-(1H-pyrazol-5-yl)-1,7-naphthyridin-4-yl}benzamide] and `COCc1ccc(-c2cc(N3CCOC[C@H]3C)nc3c(-c4ccn[nH]4)ncc(C)c23)cc1` [Example 65, 4-[4-(methoxymethyl)phenyl]-5-methyl-2-[(3R)-3-methylmorpholin-4-yl]-8-(1H-pyrazol-5-yl)-1,7-naphthyridine] are within 1.5-fold of each other in IC50: 18.2 nM for the first, 12.3 nM for the second.
